Measurements from patent publication US20070275990A1, “Heterocyclic Spiro Compound” (ONO PHARMACEUTICAL CO., LTD., priority 2003, published 2007).

Assays:
MBR = target: T1, MBR (Rattus norvegicus, UniProt P16257); test: Receptor binding experiment ([3H]PK11195 competition binding); settings: rat brain membrane preparation, [3H]PK11195 0.5 or 1 nmol/L; Ki calculated by Cheng and Prusoff formula from KD value and IC50
T1 construct: from tissue; host or cells: whole brain without cerebellum of male Wistar rats, crude membrane preparation
Protocol: The affinity of the compounds in the present invention to MBR was determined using rat brain membrane preparation. In addition, the measurement in the present invention was improved the accuracy of measurement and the sensitivity of measurement for evaluating the compounds in the present invention as follows. After male Wister rats were decapitated to extirpate the whole brain and cerebellums were removed. They were homogenized in ice-cold 50 mmol/L Tris-HCL buffer solution (pH 7.4), centrifuged and the obtained pellets were washed. The pellets resuspended and adjusted to about 1 mg/mL were used as rat brain membrane preparations for binding assay. The binding assay were experimented using [^3H]PK11195 as a MBR selective ligand. […]
To determine the amount of total binding in saturation binding experiment, membrane preparations, various concentrations of [^3H]PK11195, final concentration: 0.5 vol % dimethylsulfoxide (DMSO) and 50 mmol/L Tris-HCL buffer solution (pH 7.4) were mixed (total volume 200 μL) and were incubated for 1 hour at room temperature. […] The filter was dried and then the radioactivity on the filter was measured by liquid scintillation counter. The data obtained by the binding experiments were Scatchard analyzed using analysis software, KELL (Ver. 6, BIOSOFT) and the dissociation constant (KD value) was determined. […]

male Wistar rats = test: Evaluation of anti-stress effects (defecation under psychological stress); type: in vivo, rat; settings: 10 mg/kg orally 30 minutes before stressor load; counted 1 hour later; media treated group average 8.7 feces
Protocol: Psychological stress was loaded to male Wistar rats (Brain research, 641, 21-28, 1994). Water was stored up to the depth of about 10 cm in a container where the platform was set at the center. A stressor began to load to rats 30 minutes after the vehicle or the compound in the present invention (the compound of Example 15(39)) were orally administered by dosage of 10 mg/kg. The number of defecation was counted 1 hour later (10 per each group). Rats without administration and load of stressor rarely defecated for 1 hour. In contrast, remarkable defecation was admitted in media treated group (average 8.7 feces) loaded by stressor. […] The results clarified that the compounds in the present invention had anti-stress effects.

| Ki (MBR) [nM] | SMILES | number of defecation (average) (male Wistar rats) [feces] |
| --- | --- | --- |
| 230 | O=C1N(c2ccccc2)CCC12CCCN(S(=O)(=O)c1ccccc1)C2 (stereo not drawn) [Example 7, 2-phenyl-7-(phenylsulfonyl)-2,7-diazaspiro[4.5]decan-1-one] | – |
| 40 | COc1ccc(S(=O)(=O)N2CCCC3(CCN(c4ccc(Cl)cc4)C3=O)C2)cc1 (stereo not drawn) [Example 15(39), 2-(4-chlorophenyl)-7-[(4-methoxyphenyl)sulfonyl]-2,7-diazaspiro[4.5]decan-1-one] | 5.8 |
